Where “and” joins values, the source holds several entries; their conditions need not be identical. Equal values may be shown once.

The values below come from patent publication US20230064983A1 (priority 2020, published 2023).

Assay [1] deals with Ba/F3-EGFR-D770_N771insSVD cells (Homo sapiens, UniProt P00533, DUP768-770, cells depend on it). Kind of assay: Ba/F3 cell survival assay, EGFR D770_N771insSVD. The assay is classed as cell-based. Conditions: Cell Titer-Glo, 48 h, without IL-3; Table 4; read-out: BA/F3 (insSVD) IC50. A general note: Cellular ATP, detected with luciferase, serves as a proxy for viable cell number.

In a further assay the target is T1, Bub1 (Homo sapiens, UniProt O43683).
T1 construct: catalytic domain of human Bub1 (amino acids 704-1085); His6 (N); made in house; host or cells: insect cells (Hi5)
Kind of assay: Bub1 high ATP kinase assay (TR-FRET). It counts as biochemical. Conditions: Bub1 high ATP (2 mM) IC50, TR-FRET, 2 mM ATP; Table 3. An outline of the steps: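 Read-out was the 665/620 nm TR-FRET ratio after 1 h at 22 °C with EDTA stop mix (streptavidin-XL665, anti-phosphoserine antibody, Eu anti-mouse IgG). Beforehand, a biotinylated peptide was phosphorylated for 60 min at 22 °C under high ATP by His6-tagged human Bub1 residues 704-1085 expressed in Hi5 cells, about 200 ng/ml.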

In assay [2] the target is T2, EGFR with insertion SVD between D770 and N771 (mutEGFR D770_N771insSVD) (Homo sapiens, UniProt P00533, DUP768-770).
T2 construct: amino acids R669 to A1210; made in house; host or cells: Sf9 insect cells (baculovirus)
Kind of assay: Exon20-Mutant-EGFR(D770_N771insSVD) kinase assay (TR-FRET). The conditions noted are these: 2 mM ATP, Table 2. It counts as biochemical.

For a further assay, the target named is Ba/F3-EGFR-WT cells (Homo sapiens, UniProt P00533). Kind of assay: Ba/F3 cell survival assay, wild type EGFR. It counts as cell-based. Conditions: Cell Titer-Glo, 48 h, with 10 ng/mL EGF; Table 4; read-out: BA/F3 (wild type) IC50.
Sequence of Ba/F3-EGFR-WT cells (P00533 whole entry, looked up, change not shown): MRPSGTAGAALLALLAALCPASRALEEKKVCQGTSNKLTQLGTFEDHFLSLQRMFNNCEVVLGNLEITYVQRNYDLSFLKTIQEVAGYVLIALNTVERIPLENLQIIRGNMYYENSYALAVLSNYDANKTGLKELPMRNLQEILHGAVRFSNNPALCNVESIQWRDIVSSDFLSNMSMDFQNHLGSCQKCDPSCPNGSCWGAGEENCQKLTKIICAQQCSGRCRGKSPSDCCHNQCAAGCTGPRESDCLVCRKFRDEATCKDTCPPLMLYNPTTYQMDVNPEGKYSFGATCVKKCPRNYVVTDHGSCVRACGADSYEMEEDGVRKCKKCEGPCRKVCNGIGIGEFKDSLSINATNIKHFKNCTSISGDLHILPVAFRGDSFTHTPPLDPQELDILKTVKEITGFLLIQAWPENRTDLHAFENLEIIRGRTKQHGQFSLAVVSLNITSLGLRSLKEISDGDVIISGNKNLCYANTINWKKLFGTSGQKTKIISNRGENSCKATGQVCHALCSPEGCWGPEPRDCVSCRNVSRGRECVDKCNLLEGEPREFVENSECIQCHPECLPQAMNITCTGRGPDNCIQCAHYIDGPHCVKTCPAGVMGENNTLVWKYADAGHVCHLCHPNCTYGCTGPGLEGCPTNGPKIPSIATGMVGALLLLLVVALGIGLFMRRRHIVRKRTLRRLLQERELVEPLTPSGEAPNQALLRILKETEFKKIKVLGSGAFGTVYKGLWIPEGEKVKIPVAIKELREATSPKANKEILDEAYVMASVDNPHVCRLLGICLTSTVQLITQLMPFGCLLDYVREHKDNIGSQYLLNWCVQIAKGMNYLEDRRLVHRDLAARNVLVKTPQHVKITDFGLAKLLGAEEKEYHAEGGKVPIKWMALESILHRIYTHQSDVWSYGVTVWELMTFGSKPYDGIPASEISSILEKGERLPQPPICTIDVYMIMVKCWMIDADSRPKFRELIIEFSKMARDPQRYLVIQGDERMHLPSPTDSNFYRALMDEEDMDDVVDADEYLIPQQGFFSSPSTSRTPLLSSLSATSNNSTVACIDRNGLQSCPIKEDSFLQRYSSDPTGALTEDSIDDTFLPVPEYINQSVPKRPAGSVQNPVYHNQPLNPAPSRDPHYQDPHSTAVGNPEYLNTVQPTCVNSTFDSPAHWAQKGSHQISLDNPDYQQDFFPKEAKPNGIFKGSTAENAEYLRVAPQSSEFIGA

T1 sequence (O43683 704-1085): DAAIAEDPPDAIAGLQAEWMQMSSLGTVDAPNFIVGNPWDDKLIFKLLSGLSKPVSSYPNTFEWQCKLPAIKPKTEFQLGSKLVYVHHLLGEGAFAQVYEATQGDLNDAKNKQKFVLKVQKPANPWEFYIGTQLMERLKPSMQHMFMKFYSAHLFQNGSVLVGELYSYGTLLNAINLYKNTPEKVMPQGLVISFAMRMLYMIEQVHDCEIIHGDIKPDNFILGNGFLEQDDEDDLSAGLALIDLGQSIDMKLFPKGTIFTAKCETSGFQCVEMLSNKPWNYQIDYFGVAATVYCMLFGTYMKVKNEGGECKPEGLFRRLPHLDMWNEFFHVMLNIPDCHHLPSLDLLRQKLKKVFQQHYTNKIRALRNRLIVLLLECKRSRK
T2 sequence (P00533 other isoform, or with tags, fused parts or gaps DUP768-770): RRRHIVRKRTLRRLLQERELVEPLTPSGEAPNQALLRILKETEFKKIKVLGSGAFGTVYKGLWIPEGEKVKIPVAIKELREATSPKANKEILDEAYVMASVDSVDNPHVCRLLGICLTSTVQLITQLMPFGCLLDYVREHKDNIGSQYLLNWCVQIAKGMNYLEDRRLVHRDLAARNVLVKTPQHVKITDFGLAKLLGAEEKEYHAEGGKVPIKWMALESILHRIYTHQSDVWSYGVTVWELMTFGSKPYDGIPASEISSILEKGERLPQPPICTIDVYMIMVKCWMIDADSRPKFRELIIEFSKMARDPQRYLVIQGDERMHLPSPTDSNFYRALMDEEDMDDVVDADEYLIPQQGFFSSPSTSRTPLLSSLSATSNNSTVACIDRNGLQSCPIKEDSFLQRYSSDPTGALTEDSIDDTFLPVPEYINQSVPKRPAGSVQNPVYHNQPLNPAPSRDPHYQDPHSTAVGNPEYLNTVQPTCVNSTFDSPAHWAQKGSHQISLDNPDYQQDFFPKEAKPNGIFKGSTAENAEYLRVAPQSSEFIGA
Sequence of Ba/F3-EGFR-D770_N771insSVD cells (P00533 with tags, fused parts or gaps DUP768-770): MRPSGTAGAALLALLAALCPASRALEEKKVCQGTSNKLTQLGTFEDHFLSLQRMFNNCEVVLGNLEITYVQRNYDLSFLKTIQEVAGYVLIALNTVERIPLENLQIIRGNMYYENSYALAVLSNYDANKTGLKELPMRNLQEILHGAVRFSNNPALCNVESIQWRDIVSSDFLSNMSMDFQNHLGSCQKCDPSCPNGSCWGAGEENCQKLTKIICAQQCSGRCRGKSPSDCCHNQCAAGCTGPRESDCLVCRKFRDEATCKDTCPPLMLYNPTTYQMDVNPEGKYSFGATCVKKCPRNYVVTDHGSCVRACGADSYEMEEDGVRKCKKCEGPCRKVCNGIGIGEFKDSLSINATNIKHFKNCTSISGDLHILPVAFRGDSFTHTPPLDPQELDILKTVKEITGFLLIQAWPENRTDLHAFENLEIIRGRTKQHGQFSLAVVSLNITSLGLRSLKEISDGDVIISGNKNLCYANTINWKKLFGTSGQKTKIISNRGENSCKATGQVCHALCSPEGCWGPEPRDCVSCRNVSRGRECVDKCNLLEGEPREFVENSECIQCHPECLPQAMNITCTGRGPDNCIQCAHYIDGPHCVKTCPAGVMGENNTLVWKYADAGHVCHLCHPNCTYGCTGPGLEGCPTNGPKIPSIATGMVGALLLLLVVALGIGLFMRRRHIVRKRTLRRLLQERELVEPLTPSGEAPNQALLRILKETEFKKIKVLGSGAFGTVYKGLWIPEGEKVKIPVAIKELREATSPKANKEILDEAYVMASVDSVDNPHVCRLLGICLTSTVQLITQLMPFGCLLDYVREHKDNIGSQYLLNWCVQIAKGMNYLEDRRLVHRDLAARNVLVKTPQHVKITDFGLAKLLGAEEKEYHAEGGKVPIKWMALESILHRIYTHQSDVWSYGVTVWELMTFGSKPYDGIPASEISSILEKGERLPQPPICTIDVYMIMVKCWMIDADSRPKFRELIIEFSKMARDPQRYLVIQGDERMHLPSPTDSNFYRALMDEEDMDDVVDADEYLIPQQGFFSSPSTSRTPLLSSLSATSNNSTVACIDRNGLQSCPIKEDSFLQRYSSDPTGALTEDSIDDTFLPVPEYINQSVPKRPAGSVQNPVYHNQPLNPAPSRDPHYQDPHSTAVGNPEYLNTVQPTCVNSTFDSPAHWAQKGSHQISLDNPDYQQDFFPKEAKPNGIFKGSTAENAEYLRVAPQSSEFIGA

As to `COc1c(Cl)cccc1Nc1c(-c2ccncc2OCCC(C)OC)[nH]c2c1C(=O)N[C@H](C)C2` (single isomer, unassigned) [Example 122], the GI50 turned out to be 23.8 nM in assay [1] and 506 nM on Ba/F3-EGFR-WT cells. In addition, the 50% inhibitory concentration (IC50) against Bub1 came to 741 nM. In addition, in assay [2], the “mutEGFR (D770_N771insSVD) kinase assay IC50” value (“mutEGFR” below) was 0.122 nM.

With `COc1c(Cl)cccc1Nc1c(-c2ccncc2OCC2COCCO2)[nH]c2c1C(=O)NC1(CCC1)C2` (single isomer, unassigned) [Example 124, 3-(3-chloro-2-methoxy-anilino)-2-[3-(1,4-dioxan-2-ylmethoxy)-4-pyridyl]spiro[5,7-dihydro-1H-pyrrolo[3,2-c]pyridine-6,1′-cyclobutane]-4-one], the GI50 turned out to be 26 nM in assay [1] and 513 nM on Ba/F3-EGFR-WT cells. For the same compound, the IC50 on Bub1 amounted to 479 nM. Moreover, in assay [2], the “mutEGFR” value stood at 0.315 nM.

Turning to `COc1c(Cl)cccc1Nc1c(-c2ccncc2OCC2COCCO2)[nH]c2c1C(=O)NC1(CCC1)C2` (single isomer, unassigned) [Example 125, 3-(3-chloro-2-methoxy-anilino)-2-[3-(1,4-dioxan-2-ylmethoxy)-4-pyridyl]spiro[5,7-dihydro-1H-pyrrolo[3,2-c]pyridine-6,1′-cyclobutane]-4-one], the results for the GI50 (in assay [1]; on Ba/F3-EGFR-WT cells) were 40.4 nM and 948 nM, respectively. The IC50 against Bub1 turned out to be 446 nM. The “mutEGFR” value in assay [2] is 0.235 nM.

Consider `COc1c(Cl)cccc1Nc1c(-c2ccncc2OCC2COC(C)(C)CO2)[nH]c2c1C(=O)NC1(CCC1)C2` (single isomer, unassigned) [Example 130, 3′-(3-chloro-2-methoxyanilino)-2′-{3-[(5,5-dimethyl-1,4-dioxan-2-yl)methoxy]pyridin-4-yl}-1′,7′-dihydrospiro[cyclobutane-1,6′-pyrrolo[3,2-c]pyridin]-4′(5′H)-one], for which the values for the GI50 (in assay [1]; at Ba/F3-EGFR-WT cells) were 8.01 nM and 418 nM, respectively. Further, at Bub1, half-maximal inhibition (IC50) was put at 768 nM. Also, in assay [2], the “mutEGFR” value was determined as 0.256 nM.

Consider `COc1c(Cl)cccc1Nc1c(-c2ccncc2OCC2COC(C)(C)CO2)[nH]c2c1C(=O)NC1(CCC1)C2` (single isomer, unassigned) [Example 131, 3′-(3-chloro-2-methoxyanilino)-2′-{3-[(5,5-dimethyl-1,4-dioxan-2-yl)methoxy]pyridin-4-yl}-1′,7′-dihydrospiro[cyclobutane-1,6′-pyrrolo[3,2-c]pyridin]-4′(5′H)-one], for which the GI50 in assay [1] came out at 48.4 nM; at Ba/F3-EGFR-WT cells, 980 nM. Also, inhibition at Bub1 was half-maximal at 1670 nM (IC50). In addition, in assay [2], the “mutEGFR” value worked out at 0.318 nM.

Regarding `COc1c(Cl)cccc1Nc1c(-c2ccncc2OCC2COC(C)(C)CO2)[nH]c2c1C(=O)NC1(CC1)C2` (single isomer, unassigned) [Example 133, 3′-(3-chloro-2-methoxyanilino)-2′-(3-{[5,5-dimethyl-1,4-dioxan-2-yl]methoxy}pyridin-4-yl)-1′,7′-dihydrospiro[cyclopropane-1,6′-pyrrolo[3,2-c]pyridin]-4′(5′H)-one], the GI50 in assay [1] is 22.2 nM; at Ba/F3-EGFR-WT cells it was 484 nM. Moreover, the half-inhibitory concentration (IC50) on Bub1 was found to be 1650 nM. In assay [2], the “mutEGFR” value was 0.341 nM.

Take `COc1c(Cl)cccc1Nc1c(-c2ccncc2OCC2COC(C)(C)CO2)[nH]c2c1C(=O)NC1(CC1)C2` (single isomer, unassigned) [Example 134, 3′-(3-chloro-2-methoxyanilino)-2′-(3-{[5,5-dimethyl-1,4-dioxan-2-yl]methoxy}pyridin-4-yl)-1′,7′-dihydrospiro[cyclopropane-1,6′-pyrrolo[3,2-c]pyridin]-4′(5′H)-one]: the GI50 came out at 92.8 nM in assay [1] and 718 nM on Ba/F3-EGFR-WT cells. The compound also displayed an IC50 against Bub1 of 1160 nM. The “mutEGFR” value in assay [2] came to 0.179 nM.

Turning to `COc1c(Cl)cccc1Nc1c(-c2ccncc2OC[C@@H]2CCCO2)[nH]c2c1C(=O)NC1CCCC21` (stereo in doubt) [Example 55, (5aR*,8aS*)-3-(3-chloro-2-methoxyanilino)-2-(3-{[(2S)-oxolan-2-yl]methoxy}-4-pyridyl)-5,5a,6,7,8,8a-hexahydrocyclopenta[b]pyrrolo[2,3-d]pyridin-4(1H)-one], the values for the GI50 (in assay [1]; at Ba/F3-EGFR-WT cells) were 75.1 nM and 978 nM, respectively. The compound further gave an IC50 against Bub1 of 758 nM. Moreover, in assay [2], the “mutEGFR” value came to 0.239 nM.

As to `COc1c(Cl)cccc1Nc1c(-c2ccncc2OCC(C)(C)OC)[nH]c2c1C(=O)N[C@H](C)C2` [Example 1, (6R)-3-(3-chloro-2-methoxyanilino)-2-[3-(2-methoxy-2-methylpropoxy)pyridin-4-yl]-6-methyl-1,5,6,7-tetrahydro-4H-pyrrolo[3,2-c]pyridin-4-one], the GI50 in assay [1] turned out to be 17.8 nM; on Ba/F3-EGFR-WT cells it was 417 nM. This compound registered an IC50 against Bub1 of 1320 nM. In addition, the “mutEGFR” value in assay [2] was found to be 0.135 nM.

As for `COc1c(Cl)cccc1Nc1c(-c2ccncc2OCC(C)(C)OC)[nH]c2c1C(=O)N[C@@H](C)C2` [Example 2, (6S)-3-(3-chloro-2-methoxyanilino)-2-[3-(2-methoxy-2-methylpropoxy)pyridin-4-yl]-6-methyl-1,5,6,7-tetrahydro-4H-pyrrolo[3,2-c]pyridin-4-one], the GI50 in assay [1] is 64.6 nM; at Ba/F3-EGFR-WT cells it was 575 nM. The compound also returned an IC50 against Bub1 of 393 nM. Also, the “mutEGFR” value in assay [2] was 0.235 nM.

As to `COc1c(Cl)cccc1Nc1c(-c2ccncc2OC[C@@H]2CCO2)[nH]c2c1C(=O)N[C@H](C)C2` [Example 6, (6R)-3-(3-chloro-2-methoxyanilino)-6-methyl-2-(3-{[(2S)-oxetan-2-yl]methoxy}pyridin-4-yl)-1,5,6,7-tetrahydro-4H-pyrrolo[3,2-c]pyridin-4-one], the GI50 in assay [1] was found to be 86.4 nM; on Ba/F3-EGFR-WT cells, 623 nM. This compound also came in with an IC50 on Bub1 of 10200 nM. Besides, the “mutEGFR” value in assay [2] came out at 0.217 nM.

Regarding `COc1c(Cl)cccc1Nc1c(-c2ccncc2OC[C@@H]2CCO2)[nH]c2c1C(=O)N[C@@H](C)C2` [Example 7, (6S)-3-(3-chloro-2-methoxyanilino)-6-methyl-2-(3-{[(2S)-oxetan-2-yl]methoxy}pyridin-4-yl)-1,5,6,7-tetrahydro-4H-pyrrolo[3,2-c]pyridin-4-one], the GI50 came out at 25.7 nM in assay [1] and 384 nM on Ba/F3-EGFR-WT cells. Moreover, the IC50 at Bub1 is above 20000 nM. Moreover, in assay [2], the “mutEGFR” value is 0.0854 nM and <0.0725 nM.

For the compound `COc1c(Cl)cccc1Nc1c(-c2ccncc2OC[C@@H]2CN(C)CCO2)[nH]c2c1C(=O)N[C@H](C)C2` [Example 11, (6R)-3-(3-chloro-2-methoxyanilino)-6-methyl-2-(3-{[(2S)-4-methylmorpholin-2-yl]methoxy}pyridin-4-yl)-1,5,6,7-tetrahydro-4H-pyrrolo[3,2-c]pyridin-4-one], the figures for the GI50 (in assay [1]; on Ba/F3-EGFR-WT cells) were 17.8 nM and 264 nM, respectively. The IC50 against Bub1 was above 20000 nM. For the same compound, the “mutEGFR” value in assay [2] was determined as 0.179 nM.

Turning to `COc1c(Cl)cccc1Nc1c(-c2ccncc2OC[C@@H]2CN(CC(F)F)CCO2)[nH]c2c1C(=O)N[C@H](C)C2` [Example 12, (6R)-3-(3-chloro-2-methoxyanilino)-2-(3-{[(2S)-4-(2,2-difluoroethyl)morpholin-2-yl]methoxy}pyridin-4-yl)-6-methyl-1,5,6,7-tetrahydro-4H-pyrrolo[3,2-c]pyridin-4-one], the GI50 in assay [1] was found to be 48.7 nM; at Ba/F3-EGFR-WT cells, 719 nM. At Bub1, the IC50 was above 20000 nM. Besides, in assay [2], the “mutEGFR” value was determined as 0.172 nM.

As for `COc1c(Cl)cccc1Nc1c(-c2ccncc2OCC(C)(C)OC)[nH]c2c1C(=O)NCC2CCO` (centres unmarked) [Example 13, 3-(3-chloro-2-methoxyanilino)-7-(2-hydroxyethyl)-2-[3-(2-methoxy-2-methylpropoxy)pyridin-4-yl]-1,5,6,7-tetrahydro-4H-pyrrolo[3,2-c]pyridin-4-one], the GI50 came out at 35 nM in assay [1] and 339 nM on Ba/F3-EGFR-WT cells. The compound further returned an IC50 at Bub1 of 3630 nM. For the same compound, the “mutEGFR” value in assay [2] amounted to 0.189 nM.

For `COc1c(Cl)cccc1Nc1c(-c2ccncc2OCC2(C)CCO2)[nH]c2c1C(=O)NCC2CCO` (centres unmarked) [Example 19, 3-(3-chloro-2-methoxyanilino)-7-(2-hydroxyethyl)-2-{3-[(2-methyloxetan-2-yl)methoxy]pyridin-4-yl}-1,5,6,7-tetrahydro-4H-pyrrolo[3,2-c]pyridin-4-one], the GI50 amounted to 86.5 nM in assay [1] and 684 nM on Ba/F3-EGFR-WT cells. Moreover, the IC50 on Bub1 amounted to 13500 nM. The “mutEGFR” value in assay [2] came to 0.279 nM.

`COc1c(Cl)cccc1Nc1c(-c2ccncc2OCC2COCCO2)[nH]c2c1C(=O)NCC2C` (centres unmarked) [Example 33, 3-(3-chloro-2-methoxy-anilino)-2-[3-(1,4-dioxan-2-ylmethoxy)-4-pyridyl]-7-methyl-1,5,6,7-tetrahydropyrrolo[3,2-c]pyridin-4-one]: the results for the GI50 (in assay [1]; at Ba/F3-EGFR-WT cells) were 73.1 nM and 844 nM, respectively. This compound registered a concentration for half-maximal inhibition (IC50) at Bub1 of 5160 nM. For the same compound, the “mutEGFR” value in assay [2] was 0.201 nM.

The IC50 is the concentration needed to halve the response being measured.
